These results are taken from publication PMC10175918 (Communications Biology, 2023).

Holding throughout (assay): TGFα-shedding assay-based GPCR screening with chimeric Gα subunit proteins
Holding throughout (assay type): cell-based

In assay [1] the target is 348 GPCRs (Homo sapiens, UniProt Q9H228). Conditions: 10µM, Favipiravir 100μM.
Assay [2] concerns the target T1, 348 GPCRs (Homo sapiens, UniProt P32247).
T1 construct: expressed in transfected cells; host or cells: HEK293A
T1 sequence (P32247 1-399): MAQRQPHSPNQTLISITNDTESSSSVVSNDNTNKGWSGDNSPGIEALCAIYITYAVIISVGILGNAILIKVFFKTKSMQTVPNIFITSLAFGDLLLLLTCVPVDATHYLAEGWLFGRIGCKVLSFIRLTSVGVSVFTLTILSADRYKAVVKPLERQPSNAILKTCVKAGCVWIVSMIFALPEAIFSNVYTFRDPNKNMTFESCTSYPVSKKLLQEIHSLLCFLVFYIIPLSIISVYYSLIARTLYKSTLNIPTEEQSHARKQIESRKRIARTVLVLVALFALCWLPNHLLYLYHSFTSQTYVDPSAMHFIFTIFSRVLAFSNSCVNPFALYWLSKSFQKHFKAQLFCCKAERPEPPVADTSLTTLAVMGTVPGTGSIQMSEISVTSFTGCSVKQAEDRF
Conditions: 10µM, Favipiravir 100μM.

Assay [3] has as its target 348 GPCRs (Homo sapiens, UniProt Q99500). Conditions: 10µM, Favipiravir 100μM.
For assay [4], the target named is 348 GPCRs (Homo sapiens, UniProt P41146). The note with it: 10µM, Favipiravir 100μM.
Chain of 348 GPCRs (Homo sapiens, UniProt P41146) (P41146 whole entry): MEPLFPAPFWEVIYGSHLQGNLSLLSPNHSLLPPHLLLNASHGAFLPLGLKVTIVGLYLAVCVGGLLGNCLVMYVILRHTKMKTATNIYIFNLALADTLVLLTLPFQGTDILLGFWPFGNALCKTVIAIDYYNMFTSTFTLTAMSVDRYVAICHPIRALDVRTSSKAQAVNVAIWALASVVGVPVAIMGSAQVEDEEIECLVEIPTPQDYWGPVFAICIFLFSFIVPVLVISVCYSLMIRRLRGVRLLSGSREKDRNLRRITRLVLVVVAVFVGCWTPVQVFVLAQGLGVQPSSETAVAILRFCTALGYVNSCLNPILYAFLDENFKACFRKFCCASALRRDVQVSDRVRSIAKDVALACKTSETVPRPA
Assay [5] concerns the target T2, 348 GPCRs (Homo sapiens, UniProt P46089).
T2 construct: expressed in transfected cells; host or cells: HEK293A
Conditions: 10µM, Favipiravir 100μM.

For assay [6], the target named is T3, 348 GPCRs (Homo sapiens, UniProt P43119).
T3 construct: expressed in transfected cells; host or cells: HEK293A
T3 sequence (P43119 whole entry): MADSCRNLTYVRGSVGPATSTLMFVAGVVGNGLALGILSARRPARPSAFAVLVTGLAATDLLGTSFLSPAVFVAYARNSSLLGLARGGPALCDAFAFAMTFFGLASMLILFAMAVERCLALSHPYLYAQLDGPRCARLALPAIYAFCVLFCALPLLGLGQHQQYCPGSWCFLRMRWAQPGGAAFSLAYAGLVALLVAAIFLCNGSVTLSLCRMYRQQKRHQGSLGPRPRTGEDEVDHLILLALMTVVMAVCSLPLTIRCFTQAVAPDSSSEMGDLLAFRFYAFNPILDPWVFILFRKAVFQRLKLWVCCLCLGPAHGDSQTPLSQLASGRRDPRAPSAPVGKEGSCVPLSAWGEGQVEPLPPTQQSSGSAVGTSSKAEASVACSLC
The note with it: 10µM, Favipiravir 100μM.

Assay [7] concerns the target 348 GPCRs (Homo sapiens, UniProt P43220). The note with it: 10µM, Favipiravir 100μM.
In assay [8] the target is T4, 348 GPCRs (Homo sapiens, UniProt Q9BXC1).
T4 construct: expressed in transfected cells; host or cells: HEK293A
T4 sequence (Q9BXC1 whole entry): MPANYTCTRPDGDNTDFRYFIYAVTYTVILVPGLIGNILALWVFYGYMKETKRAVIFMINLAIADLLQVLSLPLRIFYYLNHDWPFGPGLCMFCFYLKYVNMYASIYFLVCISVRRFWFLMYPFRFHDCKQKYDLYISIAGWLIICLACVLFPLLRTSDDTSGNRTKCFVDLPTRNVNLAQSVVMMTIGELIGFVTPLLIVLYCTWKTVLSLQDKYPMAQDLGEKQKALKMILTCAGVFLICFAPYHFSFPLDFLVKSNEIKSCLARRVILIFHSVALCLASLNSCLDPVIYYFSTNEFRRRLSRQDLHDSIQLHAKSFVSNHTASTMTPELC
Conditions: 10µM, Favipiravir 100μM.

For assay [9], the target named is T5, 348 GPCRs (Homo sapiens, UniProt P08912).
T5 construct: expressed in transfected cells; host or cells: HEK293A
T5 sequence (P08912 1-532): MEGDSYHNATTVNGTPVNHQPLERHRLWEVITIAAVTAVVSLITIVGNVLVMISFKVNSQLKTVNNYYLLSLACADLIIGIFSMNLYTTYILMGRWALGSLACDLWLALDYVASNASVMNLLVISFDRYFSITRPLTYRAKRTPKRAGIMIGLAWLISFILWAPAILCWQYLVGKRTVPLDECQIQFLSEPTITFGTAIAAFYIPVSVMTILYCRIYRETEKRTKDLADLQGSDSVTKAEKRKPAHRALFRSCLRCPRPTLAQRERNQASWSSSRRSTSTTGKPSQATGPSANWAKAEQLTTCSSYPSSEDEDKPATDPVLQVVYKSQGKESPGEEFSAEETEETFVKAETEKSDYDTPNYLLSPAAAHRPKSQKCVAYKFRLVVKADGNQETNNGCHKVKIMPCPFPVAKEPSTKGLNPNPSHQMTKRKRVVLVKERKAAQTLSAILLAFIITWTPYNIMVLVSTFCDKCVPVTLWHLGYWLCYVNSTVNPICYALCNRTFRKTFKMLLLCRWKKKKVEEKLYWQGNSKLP

The target in assay [10] is T6, 348 GPCRs (Homo sapiens, UniProt Q15391).
T6 construct: expressed in transfected cells; host or cells: HEK293A
T6 sequence (Q15391 1-338): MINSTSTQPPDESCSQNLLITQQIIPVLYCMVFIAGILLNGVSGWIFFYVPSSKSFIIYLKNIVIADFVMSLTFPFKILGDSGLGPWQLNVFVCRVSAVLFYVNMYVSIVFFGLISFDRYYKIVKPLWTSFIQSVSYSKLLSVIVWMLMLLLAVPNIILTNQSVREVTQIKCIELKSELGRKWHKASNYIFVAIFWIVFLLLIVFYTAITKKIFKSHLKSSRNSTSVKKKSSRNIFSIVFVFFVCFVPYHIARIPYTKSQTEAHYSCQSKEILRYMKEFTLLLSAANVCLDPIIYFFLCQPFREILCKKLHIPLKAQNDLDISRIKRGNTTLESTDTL

For assay [11], the target named is 348 GPCRs (Homo sapiens, UniProt O95665). Conditions: NTSR2 (neurotensin receptor type 2); 10µM, Favipiravir 100μM.
Chain of 348 GPCRs (Homo sapiens, UniProt O95665) (O95665 whole entry): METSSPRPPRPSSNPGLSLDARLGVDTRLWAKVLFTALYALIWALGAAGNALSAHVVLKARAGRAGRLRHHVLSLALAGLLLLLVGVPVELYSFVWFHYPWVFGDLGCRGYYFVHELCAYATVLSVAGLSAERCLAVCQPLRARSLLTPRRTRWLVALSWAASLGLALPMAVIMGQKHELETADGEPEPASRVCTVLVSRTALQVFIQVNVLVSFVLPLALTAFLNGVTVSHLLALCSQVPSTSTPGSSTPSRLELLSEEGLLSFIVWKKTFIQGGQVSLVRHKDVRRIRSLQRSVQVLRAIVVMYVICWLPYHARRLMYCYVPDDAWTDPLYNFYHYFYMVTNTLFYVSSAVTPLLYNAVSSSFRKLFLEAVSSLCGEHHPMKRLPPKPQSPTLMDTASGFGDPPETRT
In assay [12] the target is T7, 348 GPCRs (Homo sapiens, UniProt Q9NYV8).
T7 construct: expressed in transfected cells; host or cells: HEK293A
T7 sequence (Q9NYV8 1-317): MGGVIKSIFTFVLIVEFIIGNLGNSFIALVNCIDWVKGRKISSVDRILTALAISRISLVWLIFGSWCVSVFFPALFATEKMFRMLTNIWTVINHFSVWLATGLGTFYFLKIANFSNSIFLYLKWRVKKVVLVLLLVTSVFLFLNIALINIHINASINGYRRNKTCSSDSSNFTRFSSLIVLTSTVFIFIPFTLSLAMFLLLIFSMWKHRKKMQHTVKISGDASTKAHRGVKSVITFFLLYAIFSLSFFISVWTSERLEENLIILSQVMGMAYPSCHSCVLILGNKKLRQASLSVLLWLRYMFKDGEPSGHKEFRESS
The note with it: 10µM, Favipiravir 100μM.

Where [13] appears, read: S1PR5 (sphingosine-1-phosphate receptor 5), read-out: % GPCR activation compared to TPA.
The mark [14] stands for this setting: BB3 (Bombesin receptor, subtype 3), read-out: % GPCR activation compared to TPA.
Setting [15] is: S1PR3 (sphingosine-1-phosphate receptor 3), read-out: % GPCR activation compared to TPA.
[16] abbreviates: OPRL1 (opioid Related Nociceptin Receptor 1), read-out: % GPCR activation compared to TPA.
Where [17] appears, read: GPR3 (G protein-coupled receptor 3), read-out: % GPCR activation compared to TPA.
Setting [18] is: IP (prostaglandin I2 (prostacyclin) receptor), read-out: % GPCR activation compared to TPA.
Setting [19] is: GLP1R (glucagon-like peptide 1 receptor), read-out: % GPCR activation compared to TPA.
Setting [20] is: GPR174 (G-Protein Coupled Receptor 174), read-out: % GPCR activation compared to TPA.
Where [21] appears, read: GPCR M5 (Muscarinic acetylcholine receptor M5), read-out: % GPCR activation compared to TPA.
Setting [22] is: GPCR P2Y14 (purinergic receptor P2Y, G-protein coupled, 14), read-out: % GPCR activation compared to TPA.
[23] abbreviates: TAS2R14 (taste receptor, type 2, member 14), read-out: % GPCR activation compared to TPA.
The mark [24] stands for this setting: read-out: % GPCR activation compared to TPA, S1PR5 (sphingosine-1-phosphate receptor 5).
The mark [25] stands for this setting: read-out: % GPCR activation compared to TPA, BB3 (Bombesin receptor, subtype 3).
Where [26] appears, read: read-out: % GPCR activation compared to TPA, S1PR3 (sphingosine-1-phosphate receptor 3).
The mark [27] stands for this setting: read-out: % GPCR activation compared to TPA, OPRL1 (opioid Related Nociceptin Receptor 1).
[28] abbreviates: read-out: % GPCR activation compared to TPA, GPR3 (G protein-coupled receptor 3).
Where [29] appears, read: read-out: % GPCR activation compared to TPA, IP (prostaglandin I2 (prostacyclin) receptor).
[30] abbreviates: read-out: % GPCR activation compared to TPA, GLP1R (glucagon-like peptide 1 receptor).
[31] abbreviates: read-out: % GPCR activation compared to TPA, GPR174 (G-Protein Coupled Receptor 174).
[32] abbreviates: read-out: % GPCR activation compared to TPA, GPCR M5 (Muscarinic acetylcholine receptor M5).
Setting [33] is: read-out: % GPCR activation compared to TPA, GPCR P2Y14 (purinergic receptor P2Y, G-protein coupled, 14).
Setting [34] is: read-out: % GPCR activation compared to TPA, TAS2R14 (taste receptor, type 2, member 14).

Where two headings read alike, the source gives them in different places.

Chain of 348 GPCRs (Homo sapiens, UniProt P43220) (P43220 24-463): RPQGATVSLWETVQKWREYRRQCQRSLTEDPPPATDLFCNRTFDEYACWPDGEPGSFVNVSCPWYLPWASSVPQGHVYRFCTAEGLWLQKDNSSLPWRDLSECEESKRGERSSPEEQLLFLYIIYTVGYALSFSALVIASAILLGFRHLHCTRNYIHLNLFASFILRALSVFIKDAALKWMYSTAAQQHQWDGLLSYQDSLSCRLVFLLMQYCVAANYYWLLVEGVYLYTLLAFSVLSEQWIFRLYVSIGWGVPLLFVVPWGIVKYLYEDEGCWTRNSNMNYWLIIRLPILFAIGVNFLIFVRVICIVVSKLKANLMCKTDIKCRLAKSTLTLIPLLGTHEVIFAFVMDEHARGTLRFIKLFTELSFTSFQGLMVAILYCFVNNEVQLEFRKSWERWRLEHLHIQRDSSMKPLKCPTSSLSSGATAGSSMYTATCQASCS
T2 sequence (P46089 whole entry): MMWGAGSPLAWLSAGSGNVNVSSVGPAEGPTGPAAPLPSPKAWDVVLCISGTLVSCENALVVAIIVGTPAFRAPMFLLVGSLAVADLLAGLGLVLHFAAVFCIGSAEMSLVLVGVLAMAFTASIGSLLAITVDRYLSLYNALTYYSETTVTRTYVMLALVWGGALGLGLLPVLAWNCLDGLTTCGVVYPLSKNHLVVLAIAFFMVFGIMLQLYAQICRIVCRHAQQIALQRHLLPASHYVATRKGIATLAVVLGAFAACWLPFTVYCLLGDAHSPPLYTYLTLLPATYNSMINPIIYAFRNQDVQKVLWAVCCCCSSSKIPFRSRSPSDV
Chain of 348 GPCRs (Homo sapiens, UniProt Q9H228) (Q9H228 whole entry): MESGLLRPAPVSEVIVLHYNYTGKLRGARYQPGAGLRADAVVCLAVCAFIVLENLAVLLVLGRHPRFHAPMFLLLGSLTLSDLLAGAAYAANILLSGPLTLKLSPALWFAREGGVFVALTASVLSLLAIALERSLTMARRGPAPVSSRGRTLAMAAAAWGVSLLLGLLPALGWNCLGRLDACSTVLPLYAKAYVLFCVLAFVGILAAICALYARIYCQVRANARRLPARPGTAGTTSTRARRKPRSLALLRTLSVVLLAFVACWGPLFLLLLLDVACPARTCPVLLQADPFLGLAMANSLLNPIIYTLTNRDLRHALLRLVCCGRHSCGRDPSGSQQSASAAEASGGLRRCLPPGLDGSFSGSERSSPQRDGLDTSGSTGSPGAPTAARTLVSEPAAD
Chain of 348 GPCRs (Homo sapiens, UniProt Q99500) (Q99500 whole entry): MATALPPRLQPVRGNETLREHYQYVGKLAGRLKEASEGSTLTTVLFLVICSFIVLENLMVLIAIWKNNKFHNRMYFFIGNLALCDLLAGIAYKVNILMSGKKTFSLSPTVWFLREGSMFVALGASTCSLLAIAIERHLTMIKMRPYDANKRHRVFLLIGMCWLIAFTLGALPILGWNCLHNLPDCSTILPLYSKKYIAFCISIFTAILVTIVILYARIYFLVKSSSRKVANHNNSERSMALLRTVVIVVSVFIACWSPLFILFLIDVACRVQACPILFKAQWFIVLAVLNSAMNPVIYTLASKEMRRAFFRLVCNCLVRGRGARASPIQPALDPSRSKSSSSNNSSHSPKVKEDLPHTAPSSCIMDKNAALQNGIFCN

As for `CC(C)C(=O)OC[C@H]1O[C@@H](n2ccc(NO)nc2=O)[C@H](O)[C@@H]1O` [molnupiravir], the activation at 10 µM was -0.945% at 348 GPCRs [1] (setting [13]); 0.338% at 348 GPCRs [2] (setting [14]); -2.52% on 348 GPCRs [3] (setting [15]); -2.5% at 348 GPCRs [4] (setting [16]); -2.83% on 348 GPCRs [7] (setting [19]); -0.639% at 348 GPCRs [9] (setting [21]). Moreover, the activation at 10 µM at 348 GPCRs [10] (setting [22]) worked out at 0.0147%. For the same compound, the activation at 100 µM at 348 GPCRs [5] (setting [17]) was -0.728%; on 348 GPCRs [6] (setting [18]) it was -1.76%; on 348 GPCRs [8] (setting [20]), -2%; on 348 GPCRs [12] (setting [23]), -1.82%. Moreover, at 348 GPCRs [11], the “% GPCR activation compared to TPA” value turned out to be 0.1275%.
For the compound `CC(C)OC(=O)[C@H](C)N[P@](=O)(OC[C@H]1O[C@@H](n2ccc(=O)[nH]c2=O)[C@](C)(F)[C@@H]1O)Oc1ccccc1` [sofosbuvir], the activation at 10 µM was -0.326% at 348 GPCRs [1] (setting [24]); 7.68% on 348 GPCRs [2] (setting [25]); -0.452% at 348 GPCRs [3] (setting [26]); 0.297% at 348 GPCRs [4] (setting [27]); -2.54% on 348 GPCRs [7] (setting [30]); -1.43% on 348 GPCRs [9] (setting [32]). Further, the activation at 10 µM at 348 GPCRs [10] (setting [33]) worked out at 0.966%. The activation at 100 µM on 348 GPCRs [5] (setting [28]) is -0.512%; on 348 GPCRs [6] (setting [29]) it was -1.51%; on 348 GPCRs [8] (setting [31]), -1.73%; on 348 GPCRs [12] (setting [34]), -1.26%. Moreover, the “% GPCR activation compared to TPA” value on 348 GPCRs [11] was 0.2553%.
For `N#C[C@@]1(c2ccc3c(N)ncnn23)O[C@H](CO)[C@@H](O)[C@H]1O` [GS441524], the activation at 10 µM on 348 GPCRs [1] (setting [13]) is -0.465%; at 348 GPCRs [2] (setting [14]), 1.72%; on 348 GPCRs [3] (setting [15]) it was -2.2%; on 348 GPCRs [4] (setting [16]), -0.87%; on 348 GPCRs [7] (setting [19]) it was -1.52%; at 348 GPCRs [9] (setting [21]), 2.9%. The activation at 10 µM on 348 GPCRs [10] (setting [22]) stood at 4.97%. The activation at 100 µM on 348 GPCRs [5] (setting [17]) is 7.48%; at 348 GPCRs [6] (setting [18]) it was -1.08%; at 348 GPCRs [8] (setting [20]) it was -2.64%; on 348 GPCRs [12] (setting [23]), -2.2%. The “% GPCR activation compared to TPA” value at 348 GPCRs [11] was determined as 1.005%.
As for `NC(=O)c1nc(F)cnc1O` [favipiravir, 6-fluoro-3-hydroxy-2-pyrazinecarboxamide], the activation at 10 µM at 348 GPCRs [1] (setting [13]) is 1.49%; on 348 GPCRs [2] (setting [14]) it was -0.00483%; on 348 GPCRs [3] (setting [15]), -2%; at 348 GPCRs [4] (setting [16]) it was -1.44%; at 348 GPCRs [7] (setting [19]), -2.54%. Besides, the activation at 100 µM on 348 GPCRs [5] (setting [17]) is 3.58%; on 348 GPCRs [6] (setting [18]), -2.05%; on 348 GPCRs [8] (setting [20]), -2.2%; at 348 GPCRs [9] (GPCR M5 (Muscarinic acetylcholine receptor M5), 100μM, read-out: % GPCR activation compared to TPA), 0.695%; at 348 GPCRs [10] (GPCR P2Y14 (purinergic receptor P2Y, G-protein coupled, 14), 100μM, read-out: % GPCR activation compared to TPA), 5.36%; at 348 GPCRs [12] (setting [23]) it was 0.627%. At 348 GPCRs [11], the “% GPCR activation compared to TPA” value is given as -3.411%.
`CCC(CC)COC(=O)[C@H](C)N[P@](=O)(OC[C@H]1O[C@@](C#N)(c2ccc3c(N)ncnn23)[C@H](O)[C@@H]1O)Oc1ccccc1` [remdesivir]: the activation at 10 µM was -1.2% on 348 GPCRs [1] (setting [24]); 2.03% at 348 GPCRs [2] (setting [25]); -2.57% on 348 GPCRs [3] (setting [26]); -1.46% on 348 GPCRs [4] (setting [27]); -0.928% on 348 GPCRs [7] (setting [30]); -0.595% on 348 GPCRs [9] (setting [32]). Moreover, the activation at 10 µM at 348 GPCRs [10] (setting [33]) came to 8.52%. Also, the activation at 100 µM on 348 GPCRs [5] (setting [28]) was 9.85%; at 348 GPCRs [6] (setting [29]) it was -0.107%; at 348 GPCRs [8] (setting [31]) it was 1.12%; on 348 GPCRs [12] (setting [34]), -1.51%. Moreover, the “% GPCR activation compared to TPA” value on 348 GPCRs [11] is listed as -1.859%.
